Literature values as cited in US20250288577A1, “METHODS OF TREATING A VIRUS INFECTION AND METHODS OF INHIBITING VIRAL REPLICATION” (CORNELL UNIVERSITY, priority 2022, published 2025).

Key:
Adenovirus = settings: reported in literature
influenza A = settings: reported in literature

Question: What does the source list for `O=C(Cc1cccc(OC(F)(F)F)c1)Nc1ccc(CCCCc2nnc(NC(=O)Cc3ccccn3)s2)nn1` [CB839, Telaglenastat]?
Answer: block of Adenovirus (Adenovirus): block; block of influenza A (influenza A): block
